Where two headings read alike, the source gives them in different places.
How the values were obtained:
[1] = system: ARPE-19 cells; assay: Phagocytosis analysis by flow cytometry (fluorescent carboxylate microspheres); format: cell-based, human; conditions: 6 hours; for percentage of phagocytic ARPE-19 cells: DMSO control 31%; for mean fluorescence intensity of cells: control 340; for percentage of ARPE-19 phagocytic cells / mean fluorescence intensity (phagocytic index): 50 μM statin; for percentage of ARPE-19 phagocytic cells: control 31%; for mean fluorescence intensity (phagocytic index): control 332
Description: A flow cytometric assay was used to evaluate cell phagocytosis according to a protocol described by Pranab (Mukherjee et al., 2007 Proc Natl Acad Sci USA 104:13158-63). Briefly, ARPE-19 cells were seeded in 12-well plates and cultured until 90% confluent. […] After incubation, cells were washed with PBS three times to remove any extracellular beads, then trypsinized (0.25% trypsin-EDTA, Gibco, US) for 1 minute, and neutralized with pre-warmed culture medium. The cell suspension was collected and centrifuged (241 g, 5 minutes). The cell pellet was re-suspended in 0.5 ml PBS for each sample. Subsequently, the cells were analyzed for green phagocytized fluorescent beads (excitation wavelength of 441 nm and emission wavelength of 486 nm) by a FACScalibur flow cytometer using the CellQuest 3.0.1 (Becton & Dickinson, Mountain View, Calif., US) and FlowJo 10.0 software. The percent of phagocytic cells present in each group was recorded as well as the mean fluorescence intensity of engulfed particles.
The percentage of phagocytic ARPE-19 cells and the mean fluorescence intensity of engulfed particles per group were measured by flow cytometry 6 hours after treatment.
Vavvas et al., 2016 EBioMedicine 5:198-203). […] The effects of cholesterol crystals and ox-LDL on the phagocytic function of RPE cells were studied because impairment of this function is linked to AMD (Nandrot et al., 2007 Adv Exp Med Biol 801:978-1). ARPE-19 cells were treated with 2 mg/ml cholesterol crystals for 6 hours, or 300 μg/ml oxLDL for 18 hours. The phagocytic function was then assessed by flow cytometry, as described in the methods.

[2] = system: IL-8; assay: IL-8 secretion from ARPE-19 cells (western blot / ELISA); format: cell-based, human
Description: (§1) ARPE-19 cells were seeded in 6-well plates at a density of 1×10^5 cells/well. […] The membrane was then washed and incubated with secondary antibodies. The membrane was developed with enhanced chemiluminescence. The intensity of protein bands was measured using the software Image Lab 4.1 (Bio-Rad, Hercules, Calif., US).
IL-8 induced by oxLDL was measured by analysis of conditioned media of ARPE-19 cells using an ELISA kit (IL-8, R&D Systems, Minneapolis, Minn., US) according to the manufacturer's instructions.
Cholesterol crystals induce the secretion of the inflammatory cytokines IL-6 and IL-8 in ARPE-19 cells (Hu et al., 2014 Discovery Med. 18(97):7-14). […] The levels of IL-6 and IL-8 were evaluated using western blot or ELISA. As expected, cholesterol crystals increased ARPE-19 secretion of IL-6 and IL-8, 3.2- and 2.5-fold, respectively, compared to control treatment (FIGS. 7A and B). […]. […].

[3] = system: patients with AMD with many large, soft drusen/drusenoid PEDs
Description: (§2) A case report and pilot multi-center prospective interventional study were conducted with IRB approval. Inclusion criteria were patients over the age of 50 with diagnosis of AMD and the presence of many large, soft drusen/drusenoid PEDs in both eyes. […] Pseudophakia was not a reason for exclusion, unless accompanied by significant posterior capsular opacity.

[4] = system: IL-6; assay: IL-6 secretion from ARPE-19 cells (western blot of culture medium); format: cell-based, human
Description: as §1
Cholesterol crystals induce the secretion of the inflammatory cytokines IL-6 and IL-8 in ARPE-19 cells (Hu et al., 2014 Discovery Med. 18(97):7-14). […] The levels of IL-6 and IL-8 were evaluated using western blot or ELISA. As expected, cholesterol crystals increased ARPE-19 secretion of IL-6 and IL-8, 3.2- and 2.5-fold, respectively, compared to control treatment (FIGS. 7A and B). […] Similar to cholesterol crystals, incubation of ARPE-19 with ox-LDL led to a 2.6- and 1.3-fold increase in secreted IL-6 and IL-8, respectively.

[5] = system: patient with AMD (large soft drusen); assay: Report of initial case: 80 mg atorvastatin daily in a patient with AMD; format: in vivo, human
Description: as §2
An otherwise healthy person with AMD presented deteriorating visual acuity. Their baseline visual acuity was 20/25 with significant distortion; they were already taking Age-Related Eye Disease Study (AREDS) supplementation. […] Spectral domain optical coherence tomography (SD-OCT) confirmed the significant extent of these deposits and pigment epithelial detachments as well as the overlying RPE and photoreceptor architectural distortion (FIG. 2, top row). No subretinal or intraretinal fluid was present. Standard AREDS supplementation was continued. […]

[6] = 50 μM atorvastatin, 300 μg/ml ox-LDL 18 hours
[7] = 50 μM atorvastatin, cholesterol crystals
[8] = six months after 80 mg atorvastatin

Q: `CC(C)c1c(C(=O)Nc2ccccc2)c(-c2ccccc2)c(-c2ccc(F)cc2)n1CC[C@@H](O)C[C@@H](O)CC(=O)O` [atorvastatin] was tested. Which “percentage of phagocytic ARPE-19 cells” value ([1]; 1 μM atorvastatin) did it give?
A: 35%

Q: What about the “mean fluorescence intensity of cells” value ([1]; 1 μM atorvastatin) of the same compound?
A: 368

Q: And the “percentage of phagocytic ARPE-19 cells” value ([1]; 25 μM atorvastatin)?
A: 40%

Q: What about the “mean fluorescence intensity of cells” value ([1]; 25 μM atorvastatin) of the same compound?
A: 443

Q: And the “decrease in mean fluorescence intensity induced by ox-LDL” value [1, 6]?
A: completely reversed

Q: What about the “decrease in the percentage of phagocytic cells induced by ox-LDL” value [1, 6] of the same compound?
A: completely reversed

Q: And the “percentage of phagocytic ARPE-19 cells” value ([1]; 50 μM atorvastatin)?
A: 42%

Q: What about the “decrease in mean fluorescence intensity induced by cholesterol crystals” value [1, 7] of the same compound?
A: completely reversed

Q: And the “decrease in the percentage of phagocytic cells induced by cholesterol crystals” value [1, 7]?
A: completely reversed

Q: And the “mean fluorescence intensity of cells” value ([1]; 50 μM atorvastatin)?
A: 453

Q: What about the “percentage of ARPE-19 phagocytic cells” value [1] of the same compound?
A: 43%

Q: And the “percentage of phagocytic ARPE-19 cells” value ([1]; 75 μM atorvastatin)?
A: 46%

Q: What about the “mean fluorescence intensity of cells” value ([1]; 75 μM atorvastatin) of the same compound?
A: 467

Q: What about the “levels of IL-8 compared to control” value ([2]; 0.1 μM atorvastatin pretreatment, cholesterol crystals (2.5-fold alone), western blot) of the same compound?
A: 1.8 fold

Q: What about the “levels of IL-8 compared to control” value ([2]; 0.1 μM atorvastatin pretreatment, ox-LDL (1.3-fold alone), ELISA) of the same compound?
A: 1.2 fold

Q: And the “levels of IL-8 compared to control” value ([2]; 0.5 μM atorvastatin pretreatment, cholesterol crystals (2.5-fold alone), western blot)?
A: 1.6 fold

Q: What about the “levels of IL-8 compared to control” value ([2]; 0.5 μM atorvastatin pretreatment, ox-LDL (1.3-fold alone), ELISA) of the same compound?
A: 1.02 fold

Q: What about the “levels of IL-8 compared to control” value ([2]; 1 μM atorvastatin pretreatment, cholesterol crystals (2.5-fold alone), western blot) of the same compound?
A: 1.1 fold

Q: And the “levels of IL-8 compared to control” value ([2]; 1 μM atorvastatin pretreatment, ox-LDL (1.3-fold alone), ELISA)?
A: 0.99 fold

Q: What about the “Chol. Reduction” value ([3]; All (n = 23)) of the same compound?
A: −62 +/− 35

Q: What about the “Last VA (letters)” value ([3]; All (n = 23), initial 77.6 +/- 8.3) of the same compound?
A: 77.7 +/− 8.4 letters

Q: And the “Last Cholesterol” value ([3]; All (n = 23), initial 208 +/- 34.9)?
A: 147 +/− 31

Q: What about the “Chol. Reduction” value ([3]; Non Responders (n = 13)) of the same compound?
A: 71 +/− 35.9

Q: What about the “VA gain (loss)” value ([3]; Non Responders (n = 13)) of the same compound?
A: −2.3

Q: What about the “Last VA (letters)” value ([3]; Non Responders (n = 13), initial 80.2 +/- 6) of the same compound?
A: 77.9 +/− 7.1 letters

Q: What about the “Last Cholesterol” value ([3]; Non Responders (n = 13), initial 207 +/- 37.4) of the same compound?
A: 136 +/− 24.4

Q: What about the “Chol. Reduction” value ([3]; Responders (n = 10)) of the same compound?
A: 49 +/− 31.2

Q: What about the “VA gain (loss)” value ([3]; Responders (n = 10)) of the same compound?
A: +3.3

Q: And the “Last VA (letters)” value ([3]; Responders (n = 10), initial 74.2 +/- 9.9)?
A: 77.5 +/− 10.3 letters

Q: What about the “Last Cholesterol” value ([3]; Responders (n = 10), initial 210 +/- 33.4) of the same compound?
A: 161 +/− 34.2

Q: What about the “patients showing near-complete regression of drusen deposits” value ([3]; among 23 patients who completed) of the same compound?
A: eight

Q: What about the “effect on progression of pigmentary changes or of pre-existing atrophy” value ([3]; high-dose atorvastatin) of the same compound?
A: did not appear to have a positive or negative effect

Q: What about the “letters lost on average” value ([3]; non-responders) of the same compound?
A: 2.2 letters

Q: What about the “patients who exited the study (cramps, muscle aches, hair loss)” value ([3]; of 26 patients enrolled) of the same compound?
A: Three

Q: And the “patients who responded to the treatment (regression of drusen deposits)” value ([3]; patients who completed the pilot study)?
A: Ten of 23

Q: What about the “average time to response” value ([3]; responders) of the same compound?
A: 11.7 months

Q: And the “letters gained on average” value ([3]; responders)?
A: 3 letters

Q: And the “time to response, range” value ([3]; responders)?
A: 3-22 months

Q: What about the “levels of IL-6 compared to control” value ([4]; 0.1 μM atorvastatin pretreatment, cholesterol crystals (3.2-fold alone)) of the same compound?
A: 1.7 fold

Q: What about the “levels of IL-6 compared to control” value ([4]; 0.1 μM atorvastatin pretreatment, ox-LDL (2.6-fold alone)) of the same compound?
A: 1.9 fold

Q: And the “levels of IL-6 compared to control” value ([4]; 0.5 μM atorvastatin pretreatment, ox-LDL (2.6-fold alone))?
A: 1.3 fold

Q: What about the “levels of IL-6 compared to control” value ([4]; 1 μM atorvastatin pretreatment, cholesterol crystals (3.2-fold alone)) of the same compound?
A: 0.8 fold

Q: And the “levels of IL-6 compared to control” value ([4]; 1 μM atorvastatin pretreatment, ox-LDL (2.6-fold alone))?
A: 1.4 fold

Q: And the “visual acuity improved by” value ([5]; person with AMD, six months after 80 mg atorvastatin daily)?
A: 12 letters

Q: And the “atrophy of the RPE (SD-OCT)” value [5, 8]?
A: without accompanying atrophy of the RPE

Q: And the “drusen (fundus examination and SD-OCT)” value [5, 8]?
A: complete disappearance of the drusen

Q: And the visual acuity ([5]; six months after 80 mg atorvastatin daily, 20/30 before treatment)?
A: 20/20

Q: `CC[C@H](C)C(=O)O[C@H]1C[C@@H](C)C=C2C=C[C@H](C)[C@H](CC[C@@H]3C[C@@H](O)CC(=O)O3)[C@H]21` [lovastatin] was tested. Which “percentage of ARPE-19 phagocytic cells” value [1] did it give?
A: 53%

Q: What about the “mean fluorescence intensity (phagocytic index)” value [1] of the same compound?
A: 502

Q: `CCC(C)(C)C(=O)O[C@H]1C[C@@H](C)C=C2C=C[C@H](C)[C@H](CC[C@@H]3C[C@@H](O)CC(=O)O3)[C@H]21` [simvastatin] was tested. Which “percentage of ARPE-19 phagocytic cells” value [1] did it give?
A: 56%

Q: What about the “mean fluorescence intensity (phagocytic index)” value [1] of the same compound?
A: 513

Source: US11331295B2, “High-dose statins for age-related macular degeneration” (MASSACHUSETTS EYE AND EAR INFIRMARY, priority 2015, dated 2022)
